According to US9249087B2, “HDAC inhibitors and therapeutic methods using the same” (THE BOARD OF TRUSTEES OF THE UNIVERSITY OF ILLINOIS, priority 2011, dated 2016):
Counter-ions that a name gives are not always drawn. Like-named read-outs stand apart in the source and are kept apart here.

What was measured:
Type in all cases: biochemical
Human HDAC6 = Human HDAC6 (Homo sapiens (Human), UniProt Q9UBN7); assay: HDAC6 fluorogenic peptide deacetylation inhibition assay; settings: for HDAC6 Selectivity (HDAC1/HDAC6): ratio HDAC1 IC50/HDAC6 IC50; for BEI: binding efficiency index, BEI=pIC50/MW, MW in kDa
Human HDAC1 = Human HDAC1 (Homo sapiens (Human), UniProt Q13547); assay: HDAC1 fluorogenic peptide deacetylation inhibition assay
HDAC9 = HDAC9 (Homo sapiens (Human), UniProt Q9UKV0); assay: HDAC9 inhibition assay (Acetyl-Lys(trifluoroacetyl)-AMC substrate); settings: average of two experiments; read-out: HDAC Isoform IC50 (μM) 9
HDAC8 = HDAC8 (Homo sapiens (Human), UniProt Q9BY41); assay: HDAC8 inhibition assay (fluorogenic diacyl peptide)
HDAC2 = HDAC2 (Homo sapiens (Human), UniProt Q92769); assay: HDAC2 fluorogenic peptide deacetylation inhibition assay; settings: average of two experiments; read-out: HDAC Isoform IC50 (μM) 2
[1] = average of two experiments, read-out: HDAC Isoform IC50 (μM) 6
[2] = average of two experiments, read-out: HDAC Isoform IC50 (μM) 1
[3] = average of two experiments, read-out: HDAC Isoform IC50 (μM) 8
[4] = Table 3, mean of two experiments ± standard deviation, read-out: HDAC8 IC50
[5] = Table 3, mean of two experiments ± standard deviation, read-out: HDAC6 IC50
[6] = Table 3, mean of two experiments ± standard deviation, read-out: HDAC1 IC50

HDAC9, sequence (Q9UKV0 whole entry, canonical isoform): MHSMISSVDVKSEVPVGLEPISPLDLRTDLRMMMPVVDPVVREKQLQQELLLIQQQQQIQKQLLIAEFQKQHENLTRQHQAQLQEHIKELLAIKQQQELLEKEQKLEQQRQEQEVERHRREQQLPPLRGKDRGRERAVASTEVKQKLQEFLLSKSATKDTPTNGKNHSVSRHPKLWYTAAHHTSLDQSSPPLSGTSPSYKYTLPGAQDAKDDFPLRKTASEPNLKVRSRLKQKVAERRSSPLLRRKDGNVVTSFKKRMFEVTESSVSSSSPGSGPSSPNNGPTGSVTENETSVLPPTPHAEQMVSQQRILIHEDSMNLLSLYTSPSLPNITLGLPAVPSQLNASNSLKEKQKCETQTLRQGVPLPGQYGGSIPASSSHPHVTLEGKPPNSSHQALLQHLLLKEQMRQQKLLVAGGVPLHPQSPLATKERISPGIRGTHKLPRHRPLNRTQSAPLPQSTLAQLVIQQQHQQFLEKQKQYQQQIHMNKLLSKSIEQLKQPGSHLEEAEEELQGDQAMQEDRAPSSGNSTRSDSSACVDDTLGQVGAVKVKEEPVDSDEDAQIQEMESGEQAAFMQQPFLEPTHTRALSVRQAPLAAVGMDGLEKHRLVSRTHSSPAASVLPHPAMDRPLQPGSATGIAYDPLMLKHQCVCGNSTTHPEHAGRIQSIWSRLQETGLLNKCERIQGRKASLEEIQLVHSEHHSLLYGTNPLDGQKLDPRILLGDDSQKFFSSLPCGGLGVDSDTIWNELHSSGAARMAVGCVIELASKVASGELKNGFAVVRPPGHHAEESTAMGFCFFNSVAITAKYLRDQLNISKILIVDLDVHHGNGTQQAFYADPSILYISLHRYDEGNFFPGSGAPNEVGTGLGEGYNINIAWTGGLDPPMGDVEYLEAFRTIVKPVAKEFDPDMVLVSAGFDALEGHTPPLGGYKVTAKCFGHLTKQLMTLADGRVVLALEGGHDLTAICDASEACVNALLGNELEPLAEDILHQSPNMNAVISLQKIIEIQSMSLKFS
HDAC8, sequence (Q9BY41 whole entry, canonical isoform): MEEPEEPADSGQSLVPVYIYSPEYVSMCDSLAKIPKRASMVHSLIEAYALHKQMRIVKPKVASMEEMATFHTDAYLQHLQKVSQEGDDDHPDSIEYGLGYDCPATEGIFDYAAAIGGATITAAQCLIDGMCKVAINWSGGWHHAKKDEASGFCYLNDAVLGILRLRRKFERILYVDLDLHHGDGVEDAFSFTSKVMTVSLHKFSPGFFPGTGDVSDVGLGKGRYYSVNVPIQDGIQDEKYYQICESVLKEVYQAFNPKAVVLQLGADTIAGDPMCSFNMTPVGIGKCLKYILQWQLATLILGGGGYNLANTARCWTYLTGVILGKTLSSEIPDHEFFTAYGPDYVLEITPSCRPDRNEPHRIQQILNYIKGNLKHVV
HDAC2, sequence (Q92769 whole entry, canonical isoform): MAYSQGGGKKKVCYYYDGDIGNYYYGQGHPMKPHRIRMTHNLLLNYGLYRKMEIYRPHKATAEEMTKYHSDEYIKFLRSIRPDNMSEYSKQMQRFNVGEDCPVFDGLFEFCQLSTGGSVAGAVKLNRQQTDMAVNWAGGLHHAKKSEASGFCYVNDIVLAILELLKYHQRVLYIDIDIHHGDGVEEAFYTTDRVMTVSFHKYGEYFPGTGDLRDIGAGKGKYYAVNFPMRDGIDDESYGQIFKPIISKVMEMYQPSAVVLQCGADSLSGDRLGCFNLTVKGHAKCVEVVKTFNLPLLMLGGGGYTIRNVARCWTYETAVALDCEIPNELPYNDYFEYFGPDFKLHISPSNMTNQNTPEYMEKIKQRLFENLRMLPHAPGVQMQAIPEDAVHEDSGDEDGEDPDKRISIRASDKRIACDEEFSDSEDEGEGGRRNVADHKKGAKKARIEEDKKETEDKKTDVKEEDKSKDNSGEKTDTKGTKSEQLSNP
Human HDAC6, sequence (Q9UBN7 whole entry): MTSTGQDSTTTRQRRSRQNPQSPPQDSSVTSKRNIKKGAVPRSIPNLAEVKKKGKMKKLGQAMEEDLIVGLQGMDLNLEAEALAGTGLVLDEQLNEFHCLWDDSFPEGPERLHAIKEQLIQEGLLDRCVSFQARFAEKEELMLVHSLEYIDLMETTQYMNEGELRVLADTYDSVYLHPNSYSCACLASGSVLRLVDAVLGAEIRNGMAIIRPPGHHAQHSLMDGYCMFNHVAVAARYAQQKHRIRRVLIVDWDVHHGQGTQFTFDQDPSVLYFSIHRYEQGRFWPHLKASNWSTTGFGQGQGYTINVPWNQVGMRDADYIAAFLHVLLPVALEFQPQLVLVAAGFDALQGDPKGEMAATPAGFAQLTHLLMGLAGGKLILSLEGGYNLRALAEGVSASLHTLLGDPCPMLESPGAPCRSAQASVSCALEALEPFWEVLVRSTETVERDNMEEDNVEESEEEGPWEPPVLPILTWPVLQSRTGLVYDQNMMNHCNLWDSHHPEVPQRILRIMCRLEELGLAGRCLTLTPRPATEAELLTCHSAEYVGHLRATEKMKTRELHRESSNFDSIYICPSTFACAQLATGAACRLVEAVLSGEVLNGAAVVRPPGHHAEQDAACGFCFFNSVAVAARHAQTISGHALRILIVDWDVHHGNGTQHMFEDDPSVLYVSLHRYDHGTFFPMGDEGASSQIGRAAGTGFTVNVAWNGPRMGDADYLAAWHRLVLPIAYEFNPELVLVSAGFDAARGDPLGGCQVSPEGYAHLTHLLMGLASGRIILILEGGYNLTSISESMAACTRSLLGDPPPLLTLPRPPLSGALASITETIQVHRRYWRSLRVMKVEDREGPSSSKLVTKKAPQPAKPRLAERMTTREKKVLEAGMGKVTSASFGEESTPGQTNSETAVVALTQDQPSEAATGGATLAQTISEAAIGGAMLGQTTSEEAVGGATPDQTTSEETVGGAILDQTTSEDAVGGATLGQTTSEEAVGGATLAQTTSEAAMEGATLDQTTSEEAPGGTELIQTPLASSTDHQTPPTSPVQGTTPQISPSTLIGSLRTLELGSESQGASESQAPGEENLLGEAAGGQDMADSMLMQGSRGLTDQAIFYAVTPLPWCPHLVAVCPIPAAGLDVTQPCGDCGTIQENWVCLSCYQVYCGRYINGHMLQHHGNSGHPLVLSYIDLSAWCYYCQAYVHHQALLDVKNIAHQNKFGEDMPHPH
Human HDAC1, sequence (Q13547 whole entry, canonical isoform): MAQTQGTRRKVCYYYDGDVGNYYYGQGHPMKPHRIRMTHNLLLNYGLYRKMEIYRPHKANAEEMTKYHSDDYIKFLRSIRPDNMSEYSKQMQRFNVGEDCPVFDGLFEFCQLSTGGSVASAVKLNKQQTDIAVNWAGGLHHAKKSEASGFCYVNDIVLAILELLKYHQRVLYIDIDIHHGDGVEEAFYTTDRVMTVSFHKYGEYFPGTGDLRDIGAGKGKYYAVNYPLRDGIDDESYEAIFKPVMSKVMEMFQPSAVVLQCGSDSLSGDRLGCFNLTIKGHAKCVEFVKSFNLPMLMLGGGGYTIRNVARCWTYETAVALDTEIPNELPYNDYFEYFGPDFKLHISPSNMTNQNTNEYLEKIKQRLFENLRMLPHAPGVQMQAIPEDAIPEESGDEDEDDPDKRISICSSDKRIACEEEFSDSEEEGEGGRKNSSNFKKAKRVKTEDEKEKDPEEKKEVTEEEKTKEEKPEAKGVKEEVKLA

Row | SMILES | IC50 (Human HDAC6; [1]) | HDAC6 Selectivity (HDAC1/HDAC6) (Human HDAC6) | IC50 (Human HDAC1; [2]) | also measured
1 | Cc1c(CN)c2ccccc2n1Cc1ccc(C(=O)NO)cc1 | 0.00146 µM | 2116 | 3.09 µM | 
2 | O=C(NO)c1ccc(Cn2ccc3ccccc32)cc1 [Compound 2, 4-((1H-Indol-1-yl)methyl)-N-hydroxybenzamide] | 0.00975 µM |  | 5.83 µM | IC50 (HDAC9): 8.16 µM; IC50 (HDAC8; [3]): 0.417 µM; IC50 (HDAC2): 9.19 µM
3 | Cc1cc2ccccc2n1Cc1ccc(C(=O)NO)cc1 [Compound 4, N-Hydroxy-4-((2-methyl-1H-indol-1-yl)methyl)benzamide] | 0.00251 µM |  | 5.34 µM | IC50 (HDAC9): 18.3 µM; IC50 (HDAC8; [3]): 0.397 µM; selectivity against HDAC1 (Human HDAC6; HDAC6 vs HDAC1, running text): 2125 fold; IC50 (Human HDAC6; read-out: HDAC6 IC50): 0.0025 µM; IC50 (HDAC2): 8.14 µM
4 | Cc1cn(Cc2ccc(C(=O)NO)cc2)c2ccccc12 [Compound 6, N-Hydroxy-4-((3-methyl-1H-indol-1-yl)methyl)benzamide] | 0.00511 µM |  | 6.79 µM | IC50 (HDAC9): 14.5 µM; IC50 (HDAC8; [3]): 0.911 µM; IC50 (HDAC2): 11.9 µM
5 | Cc1c(C)n(Cc2ccc(C(=O)NO)cc2)c2ccccc12 [Compound 8, 4-((2,3-Dimethyl-1H-indol-1-yl)methyl)-N-hydroxybenzamide] | 0.00408 µM |  | 12.2 µM | 
6 | O=C(NO)c1ccc(Cn2cc(Cc3ccccc3)c3ccccc32)cc1 [Compound 10, 4-((3-Benzyl-1H-indol-1-yl)methyl)-N-hydroxybenzamide] | 0.0293 µM |  | 13.2 µM | IC50 (HDAC8; [3]): 0.324 µM
7 | O=C(NO)c1ccc(Cn2cnc3cncnc32)cc1 [Compound 12, 4-((9H-Purin-9-yl)methyl)-N-hydroxybenzamide] | 0.00348 µM |  | 0.94 µM | 
8 | O=C(NO)c1ccc(Cn2cnc3ncncc32)cc1 [Compound 14, 4-((7H-Purin-7-yl)methyl)-N-hydroxybenzamide] | 0.0142 µM |  | 3.56 µM | 
9 | CN1CCN(CCc2cn(Cc3ccc(C(=O)NO)cc3)c3ccccc23)CC1 [Compound 17, N-Hydroxy-4-{3-[2-(4-methyl-piperazin-1-yl)-ethyl]-indol-1-ylmethyl}-benzamide] | 0.00294 µM |  | 1.23 µM | IC50 (HDAC8; [3]): 0.174 µM
10 | Cc1c(CN(C)C)c2ccccc2n1Cc1ccc(C(=O)NO)cc1 [Compound 21, 4-((3-((Dimethylamino)methyl)-2-methyl-1H-indol-1-yl)methyl)-N-hydroxybenzamide] | 0.00146 µM |  | 3.09 µM | 
11 | NC(=O)c1ccc(Cn2ccc3ccccc32)cc1 [Compound 22, 4-((1H-Indol-1-yl)methyl)benzamide] | > 30 µM |  | > 30 µM | 
12 | CC(=O)c1ccc(Cn2ccc3ccccc32)cc1 [Compound 23, 1-(4-((1H-Indol-1-yl)methyl)phenyl)ethanone] | > 30 µM |  | > 30 µM | 
13 | O=C(NO)c1ccc(Cn2cnc3ccccc32)cc1 [Compound 27, 4-((1H-Benzo[d]imidazol-1-yl)methyl)-N-hydroxybenzamide.TFA] | 0.0294 µM |  | 8.54 µM | 
14 | CS(=O)(=O)NCCc1cn(Cc2ccc(C(=O)NO)cc2)c2ccccc12 [Compound 30, N-Hydroxy-4-((3-(2-(methylsulfonamido)ethyl)-1H-indol-1-yl)methyl)benzamide] | 0.00017 µM |  | 0.623 µM | 
15 | Cc1nc2ccccc2n1Cc1ccc(C(=O)NO)cc1 [Compound 32, N-hydroxy-4-((2-methyl-1H-benzo[d]imidazol-1-yl)methyl)benzamide] | 0.0092 µM |  | 8.79 µM | 
16 | CC(=O)NCCCc1nc2ccccc2n1Cc1ccc(C(=O)NO)cc1 [Compound 36, 4-((2-(3-Acetamidopropyl)-1H-benzo[d]imidazol-1-yl)methyl)-N-hydroxybenzamide.TFA] | 0.047 µM |  | 14.7 µM | 
17 | CN(C)CCc1nc2ccccc2n1Cc1ccc(C(=O)NO)cc1 [Compound 38, 4-((2-(2-(Dimethylamino)ethyl)-1H-benzo[d]imidazol-1-yl)methyl)-N-hydroxybenzamide] | 0.126 µM |  | 52.4 µM | 
18 | CC(C)c1nc2ccccc2n1Cc1ccc(C(=O)NO)cc1 [Compound 39, N-Hydroxy-4-((2-isopropyl-1H-benzo[d]imidazol-1-yl)methyl)benzamide] | 0.047 µM |  | 27.7 µM | 
19 | O=C(NO)c1ccc(Cn2cccc2)cc1 [Compound 41, 4-((1H-Pyrrol-1-yl)methyl)-N-hydroxybenzamide] | 0.0313 µM |  | 5.73 µM | 
20 | O=C(NO)c1ccc(Cn2cccn2)cc1 [Compound 43, 4-((1H-Pyrazol-1-yl)methyl)-N-hydroxybenzamide] | 0.0109 µM |  | 1.47 µM | 
21 | O=C(NO)c1ccc(Cc2ccncc2)cc1 [Compound 45, N-Hydroxy-4-(pyridin-4-ylmethyl)benzamide] | 0.0358 µM |  | 6.47 µM | 
22 | CN(C)c1ccc(Cc2ccc(C(=O)NO)cc2)cc1 [Compound 47, 4-(4-(Dimethylamino)benzyl)-N-hydroxybenzamide] | 0.0119 µM |  | 6.87 µM | 
23 | CN(C)c1cccc(Cc2ccc(C(=O)NO)cc2)c1 [Compound 49, 4-(3-(Dimethylamino)benzyl)-N-hydroxybenzamide] | 0.0701 µM |  | 12.2 µM | 

Row | SMILES | IC50 (Human HDAC6; [1]) | HDAC6 Selectivity (HDAC1/HDAC6) (Human HDAC6) | IC50 (Human HDAC1; [2]) | also measured
24 | CCN(CC)Cc1ccc(C(=O)NO)cc1 [Compound 51, 4-((Diethylamino)methyl)-N-hydroxybenzamide] | 6.28 µM |  | > 30 µM | IC50 (HDAC8; [3]): 9.43 µM
25 | CC(C)N(Cc1ccc(C(=O)NO)cc1)C(C)C [Compound 53, 4-((Diisopropylamino)methyl)-N-hydroxybenzamide] | 0.124 µM |  | 23.8 µM | IC50 (HDAC8; [3]): 1.92 µM
26 | O=C(NO)c1ccc(CN(c2ccccc2)c2ccccc2)cc1 [Compound 55, 4-((Diphenylamino)methyl)-N-hydroxybenzamide] | 4.5 µM |  | 6.66 µM | IC50 (HDAC8; [3]): 2.38 µM; selectivity for HDAC6 vs HDAC8 (Human HDAC6): over 500 fold
27 | O=C(NO)c1ccc(CN2CCCC2)cc1 [Compound 57, N-Hydroxy-4-(pyrrolidin-1-ylmethyl)benzamide.TFA] | 0.54 µM |  | 29 µM | IC50 (HDAC8; [3]): 1.2 µM
28 | COC[C@@H]1CCCN1Cc1ccc(C(=O)NO)cc1 [Compound 59, (S)-N-Hydroxy-4-((2-(methoxymethyl)pyrrolidin-1-yl)methyl)benzamide.TFA] | 0.15 µM |  | 27.9 µM | IC50 (HDAC8; [3]): 1.82 µM
29 | COC[C@H]1CCCN1Cc1ccc(C(=O)NO)cc1 [Compound 61] | 1.25 µM |  | > 30 µM | IC50 (HDAC8; [3]): 5.59 µM
30 | O=C(NO)c1ccc(Cn2ccc3ccccc32)cc1 [drawing 136] |  | 598 |  | IC50 (HDAC9): 8.16 µM; IC50 (HDAC2): 9.19 µM
31 | Cc1cc2ccccc2n1Cc1ccc(C(=O)NO)cc1 [drawing 137] |  | 2127 |  | IC50 (HDAC9): 18.3 µM; IC50 (HDAC2): 8.14 µM
32 | Cc1cn(Cc2ccc(C(=O)NO)cc2)c2ccccc12 [drawing 138] |  | 1329 |  | IC50 (HDAC9): 14.5 µM; IC50 (HDAC2): 11.9 µM
33 | O=C(NO)c1ccc(Cn2cc(Cc3ccccc3)c3ccccc32)cc1 [drawing 140] |  | 451 |  | 
34 | CN1CCN(CCc2cn(Cc3ccc(C(=O)NO)cc3)c3ccccc23)CC1 [drawing 142] | 0.00294 µM | 418 | 1.23 µM | IC50 (HDAC8; [3]): 0.174 µM
35 | O=C(NO)c1ccc(Cn2cnc3cncnc32)cc1 [drawing 143] |  | 270 |  | 
36 | O=C(NO)c1ccc(Cn2cnc3ncncc32)cc1 [drawing 144] |  | 251 |  | 
37 | O=C(NO)c1ccc(Cc2ccncc2)cc1 [drawing 145] |  | 181 |  | 
38 | CN(C)c1ccc(Cc2ccc(C(=O)NO)cc2)cc1 [drawing 146] |  | 577 |  | 
39 | O=C(NO)c1ccc(Cn2cccc2)cc1 [drawing 147] |  | 183 |  | 
40 | O=C(NO)c1ccc(Cn2cccn2)cc1 [drawing 148] |  | 135 |  | 
41 | O=C(NO)c1ccc(CN2CCCC2)cc1 [drawing 150] |  | 54 |  | 
42 | CCN(CC)Cc1ccc(C(=O)NO)cc1 [drawing 153] |  | >5 |  | 
43 | O=C(NO)c1ccc(Cn2ccc3ccccc32)cc1 [drawing 157] |  |  |  | IC50 (HDAC8; [4]): 0.417 ± 0.04 µM; IC50 (Human HDAC6; [5]): 0.0097 ± 0.0003 µM; BEI (Human HDAC6): 30.1; IC50 (Human HDAC1; [6]): 5.83 ± 0.7 µM
44 | Cc1cc2ccccc2n1Cc1ccc(C(=O)NO)cc1 [drawing 158] |  |  |  | IC50 (HDAC8; [4]): 0.397 ± 0.099 µM; IC50 (Human HDAC6; [5]): 0.0025 ± 0.0004 µM; BEI (Human HDAC6): 30.7; IC50 (Human HDAC1; [6]): 5.34 ± 0.16 µM
45 | Cc1cn(Cc2ccc(C(=O)NO)cc2)c2ccccc12 [drawing 159] |  |  |  | IC50 (HDAC8; [4]): 0.911 ± 0.042 µM; IC50 (Human HDAC6; [5]): 0.0051 ± 0.0008 µM; BEI (Human HDAC6): 29.6; IC50 (Human HDAC1; [6]): 6.79 ± 0.29 µM
46 | O=C(NO)c1ccc(CN(c2ccccc2)c2ccccc2)cc1 [drawing 162] |  |  |  | IC50 (HDAC8; [4]): 2.38 ± 0.25 µM; BEI (Human HDAC6): 26.3; IC50 (Human HDAC1; [6]): 6.66 ± 0.51 µM
